Reference: ChEMBL document CHEMBL3272085, “Quantitative structure-activity relationships. 2. A mixed approach, based on Hansch and Free-Wilson Analysis” (1976)

species on record: Rattus norvegicus; assay: Thyroxine-like activity in rat by antigoiter assay relative to control; format: functional

Compound | Activity | log(activity)
N[C@@H](Cc1cc(I)c(Oc2ccc(O)c(F)c2)c(I)c1)C(=O)O | 8% | 0.9
N[C@@H](Cc1cc(I)c(Oc2ccc(O)c(Cl)c2)c(I)c1)C(=O)O | 27% | 1.43
N[C@@H](Cc1cc(I)c(Oc2cc(I)c(O)c(I)c2)c(I)c1)C(=O)O [LEVOTHYROXINE] | 100% | 2
N[C@@H](Cc1cc(Br)c(Oc2cc(I)c(O)c(I)c2)c(Br)c1)C(=O)O | 12.5% | 1.1
N[C@@H](Cc1cc(I)c(Oc2cc(F)c(O)c(I)c2)c(I)c1)C(=O)O | 28% | 1.45
Cc1cc(Oc2c(C)cc(C[C@H](N)C(=O)O)cc2C)cc(C)c1O | 2% | 0.3
CC(C)c1cc(Oc2c(Br)cc(C[C@H](N)C(=O)O)cc2Br)ccc1O | 450% | 2.65
N[C@@H](Cc1cc(I)c(Oc2cc(F)c(O)c(F)c2)c(I)c1)C(=O)O | 1.8% | 0.26
CC(C)Cc1cc(Oc2c(I)cc(C[C@H](N)C(=O)O)cc2I)ccc1O | 60% | 1.78
N[C@@H](Cc1cc(Cl)c(Oc2cc(I)c(O)c(I)c2)c(Cl)c1)C(=O)O | 0.1% | -1
Cc1cc(C[C@H](N)C(=O)O)cc(C)c1Oc1ccc(O)c(C(C)C)c1 | 18% | 1.26
CC(C)(C)c1cc(Oc2c(I)cc(C[C@H](N)C(=O)O)cc2I)ccc1O | 120% | 2.08
N[C@@H](Cc1cc(Br)c(Oc2ccc(O)c(Br)c2)c(Br)c1)C(=O)O | 44% | 1.64
Cc1cc(Oc2c(I)cc(C[C@H](N)C(=O)O)cc2I)ccc1O | 126% | 2.1
N[C@@H](Cc1cc(I)c(Oc2ccc(O)c(Br)c2)c(I)c1)C(=O)O | 138% | 2.14
CC(C)c1cc(Oc2c(I)cc(C[C@H](N)C(=O)O)cc2I)ccc1O | 868% | 2.94
N[C@@H](Cc1cc(I)c(Oc2ccc(O)c(-c3ccccc3)c2)c(I)c1)C(=O)O | 32% | 1.51
N[C@@H](Cc1cc(I)c(Oc2ccc(O)c(I)c2)c(I)c1)C(=O)O [LIOTHYRONINE] | 545% | 2.74
N[C@@H](Cc1cc(Br)c(Oc2cc(Br)c(O)c(Br)c2)c(Br)c1)C(=O)O | 0.51% | -0.29
N[C@@H](Cc1cc(I)c(Oc2ccc(O)c(O)c2)c(I)c1)C(=O)O | 1.5% | 0.18
N[C@@H](Cc1cc(I)c(Oc2cc(Cl)c(O)c(Cl)c2)c(I)c1)C(=O)O | 0.9% | -0.05
Cc1cc(C[C@H](N)C(=O)O)cc(C)c1Oc1ccc(O)c(I)c1 | 5% | 0.7
N[C@@H](Cc1cc(I)c(Oc2ccc(O)cc2)c(I)c1)C(=O)O | 10% | 1
CCc1cc(Oc2c(I)cc(C[C@H](N)C(=O)O)cc2I)ccc1O | 506% | 2.7
Cc1cc(Oc2c(C)cc(C[C@H](N)C(=O)O)cc2C)ccc1O | 3% | 0.48
N[C@@H](Cc1cc(I)c(Oc2cc(Br)c(O)c(Br)c2)c(I)c1)C(=O)O | 10% | 1
N[C@@H](Cc1cc(Br)c(Oc2ccc(O)c(I)c2)c(Br)c1)C(=O)O | 130% | 2.11
Cc1cc(C[C@H](N)C(=O)O)cc(I)c1Oc1ccc(O)c(I)c1 | 40% | 1.6

tested on: Aspergillus niger; assay: Antimicrobial activity against Aspergillus niger; format: functional

Compound | log(1/C)
Oc1ccccc1-c1ccccc1 [2-PHENYLPHENOL] | 4.1
Oc1ccc(Cl)cc1-c1ccccc1 | 4.52
Cc1cc(O)c(C(C)(C)C)cc1Cl | 4.3
Cc1cc(O)cc(C)c1Cl [CHLOROXYLENOL] | 4.22
Oc1ccc(Cl)cc1 [PARACHLOROPHENOL] | 3.35
Cc1cccc(C)c1O | 3.35
Cc1cc(Cl)cc(C)c1O | 4.4
Cc1ccccc1O [ORTHOCRESOL] | 2.7
CC(C)c1ccccc1O | 3.35
Cc1cc(O)ccc1Cl [CHLOROCRESOL] | 3.7
Oc1ccccc1 [PHENOL] | 2.35
Oc1ccccc1C1CCCCC1 | 4
Oc1ccc(Cl)cc1C1CCCCC1 | 4.4
Cc1cc(Cl)ccc1O | 3.7
Cc1cc(C)cc(O)c1 | 3.26

tested on: Staphylococcus aureus; assay: Antimicrobial activity against Staphylococcus aureus; format: functional

Compound | log(1/C)
CCCCCCCCCCCCCCCC[N+](C)(C)Cc1ccc(Cl)cc1Cl | 3.41
CCCCCCCCCCCCCC[N+](C)(C)Cc1ccccc1Cl | 4.14
CCCCCCCCCCCCCCCC[N+](C)(C)Cc1ccc(OC)c(OC)c1 | 3.41
CCCCCCCCCC[N+](C)(C)Cc1ccc(Cl)cc1 | 3.6
CCCCCCCCCCCCCCCC[N+](C)(C)Cc1ccc(Cl)cc1 | 3.85
CCCCCCCCCCCCCCCCCC[N+](C)(C)Cc1ccc(Cl)cc1 | 3.17
CCCCCCCCCCCCCC[N+](C)(C)Cc1ccc(OC)c(OC)c1 | 4.11
CCCCCCCCCCCC[N+](C)(C)Cc1ccc2c(c1)OCO2 | 4
CCCCCCCCCCCCCCCC[N+](C)(C)Cc1ccccc1Cl | 3.74
CCCCCCCCCCCC[N+](C)(C)Cc1ccc(Cl)cc1Cl | 4.25
CCCCCCCC[N+](C)(C)Cc1ccc(Cl)cc1Cl | 2.63
CCCCCCCC[N+](C)(C)Cc1ccc(Cl)c(Cl)c1 | 2.92
CCCCCCCCCCCCCC[N+](C)(C)Cc1ccc(Cl)cc1Cl | 4.28
CCCCCCCCCCCCCC[N+](C)(C)Cc1ccccc1 [MIRISTALKONIUM ION] | 4.17
CCCCCCCCCCCCCCCCCC[N+](C)(C)Cc1ccc([N+](=O)[O-])cc1 | 3.46
CCCCCCCC[N+](C)(C)Cc1ccc(Cl)cc1 | 2.6
CCCCCCCC[N+](C)(C)Cc1ccc2c(c1)OCO2 | 2.04
CCCCCCCCCCCCCC[N+](C)(C)Cc1ccc2c(c1)OCO2 | 4.23
CCCCCCCC[N+](C)(C)Cc1ccc([N+](=O)[O-])cc1 | 2.11
CCCCCCCCCCCCCCCC[N+](C)(C)Cc1ccc2c(c1)OCO2 | 4.2
CCCCCCCCCCCC[N+](C)(C)Cc1ccc(Cl)cc1 | 4.04
CCCCCCCCCCCCCCCC[N+](C)(C)Cc1ccc(Cl)c(Cl)c1 | 3.39
CCCCCCCCCCCCCCCCCC[N+](C)(C)Cc1ccc(Cl)cc1Cl | 3.3

Compound | log(1/C)
CCCCCCCCCCCCCC[N+](C)(C)Cc1ccc(Cl)cc1 | 4.34
CCCCCCCC[N+](C)(C)Cc1ccccc1Cl | 2.02
CCCCCCCCCC[N+](C)(C)Cc1ccc2c(c1)OCO2 | 3.08
CCCCCCCCCCCCCCCCCC[N+](C)(C)Cc1ccccc1 | 3.34
CCCCCCCCCCCC[N+](C)(C)Cc1ccccc1Cl | 4.14
CCCCCCCCCCCCCCCCCC[N+](C)(C)Cc1ccc(Cl)c(Cl)c1 | 3.11
CCCCCCCCCCCCCC[N+](C)(C)Cc1ccc([N+](=O)[O-])cc1 | 4.23
CCCCCCCCCC[N+](C)(C)Cc1ccc(Cl)cc1Cl | 3.65
CCCCCCCCCCCC[N+](C)(C)Cc1ccccc1 [BENZODODECINIUM] | 3.74
CCCCCCCCCCCCCCCCCC[N+](C)(C)Cc1ccccc1Cl | 3.43
CCCCCCCCCCCCCCCC[N+](C)(C)Cc1ccccc1 [CETALKONIUM] | 3.92
CCCCCCCCCCCC[N+](C)(C)Cc1cc([N+](=O)[O-])ccc1O | 2.7
CCCCCCCCCC[N+](C)(C)Cc1ccccc1 | 2.79
CCCCCCCCCC[N+](C)(C)Cc1ccc(Cl)c(Cl)c1 | 3.79
CCCCCCCCCC[N+](C)(C)Cc1ccccc1Cl | 3.41
CCCCCCCCCCCCCCCC[N+](C)(C)Cc1ccc([N+](=O)[O-])cc1 | 4
CCCCCCCCCCCCCC[N+](C)(C)Cc1ccc(Cl)c(Cl)c1 | 4.04
CCCCCCCCCC[N+](C)(C)Cc1ccc([N+](=O)[O-])cc1 | 3.11
CCCCCCCCCCCC[N+](C)(C)Cc1ccc([N+](=O)[O-])cc1 | 4.2
CCCCCCCCCCCCCCCCCC[N+](C)(C)Cc1ccc2c(c1)OCO2 | 3.23
CCCCCCCCCCCC[N+](C)(C)Cc1ccc(Cl)c(Cl)c1 | 4.36
CCCCCCCCCCCC[N+](C)(C)Cc1ccc(OC)c(OC)c1 | 3.71
